{"source": "patent US20240182449A1", "about": "“CRYSTALLINE FORMS OF AN MK2 INHIBITOR” (XinThera, Inc., priority 2022, published 2024)", "key": {"[1]": {"test": "Slurry competition experiments (thermodynamic stability relationship)", "format": "physicochemical", "details": "RT", "protocol": "Slurry competition experiments were carried out between anhydrous and hydrates, to establish stability relationships. Appropriate amount of Form I was suspended in different solvents for pre-saturation at RT. Then the filtrate was added into equal amount of different forms, and the mixture was kept stirring at RT for certain time before XRPD tests."}, "[2]": {"test": "Salt screening with strong acids (chemical stability, HPLC purity)", "format": "physicochemical", "protocol": "A salt screening was conducted with 6 pharmaceutically acceptable strong acids. About 25 mg of compound 1 was weighed into a 1.5-mL glass vial, then 1.1 eq. of selected acid was weighted into the above glass vial. Liquid strong acid was pre-diluted in corresponding solvent. After addition of 0.5 mL solvent, the mixture was stirred at RT for 24 h. 0.5 mL more solvent was added to dilute several viscous systems at 4 h (highlighted as * in the summary table). If no solid was obtained, anti-solvent of heptane was added into the filtrates gradually at RT to induce precipitation (highlighted as ** in the summary table). The suspensions were filtered and the solids were vacuum dried at 40° C. for 4 h.\nHPLC results (Table 33) confirmed significant purity decrease by>15%."}, "[3]": {"test": "Slurry conversion of Form I and Form X in solvents (XRPD result)", "format": "physicochemical", "details": "slurry at RT, Toluene"}, "[4]": {"test": "Solubility estimation at RT by visual observation in selected solvent systems", "details": "RT", "protocol": "The solubility of compound 1 Form I and Form X was estimated at RT by visual observation in selected solvent systems. Approximately 5 mg solids were weighed into 8 mL glass vial, and then solvent was added stepwise until solids were dissolved completely or a total of solvent volume reached 5 mL."}, "[5]": {"test": "Slurry conversion of Form I and Form X in solvents (XRPD result)", "format": "physicochemical", "details": "for XRPD Result-Day 3: slurry at 80° C.", "protocol": "Appropriate amount of Form I was added into different solvents to make suspensions, which were kept stirring at RT and 50° C. for 3 and 7 days, and at 80° C. for 3 days. Solid samples were collected by centrifugation and analyzed by XRPD. Forms I-IV, VII and VIII were obtained by slurry experiments of Form I.\nAppropriate amount of Form X was added into different solvents to make suspensions, which were kept stirring at RT and 50° C. for 3 and 7 days, and at 80° C. for 3 days. Solid samples were collected by centrifugation and analyzed by XRPD."}, "[6]": {"details": "slurry at 50° C., 2-MeTHF/CYH (1/4)"}, "[7]": {"details": "slurry at 50° C., ACN/water (1/9)"}, "[8]": {"details": "slurry at 50° C., Acetone/water (1/4)"}, "[9]": {"details": "slurry at 50° C., IPAc/heptane (1/4)"}, "[10]": {"details": "slurry at 50° C., IPE/water (200/1)"}, "[11]": {"details": "slurry at 50° C., Toluene/heptane (1/4)"}, "[12]": {"details": "slurry at RT, Acetone/water (1/4)"}, "[13]": {"details": "slurry at RT, IPAc/heptane (1/4)"}, "[14]": {"details": "slurry at RT, IPE/water (200/1)"}, "[15]": {"details": "slurry at RT, Toluene/heptane (1/4)"}}, "data": [{"smiles": "[2H]C([2H])(Oc1cc(C)n(-c2c(C)cnc(-n3ccc(C(C)(C)O)n3)c2F)c(=O)c1Cl)c1ncc(F)cc1F", "note": "[Form IV + IX]", "values": [{"measurement": "Output of competitive slurry (XRPD)", "setting": "[1]; Water, 3 d", "result": "Form X + IV (trace)"}, {"measurement": "Output of competitive slurry (XRPD)", "setting": "[1]; Water/MeOH (9/1), 3 d", "result": "Form X + IV"}, {"measurement": "Output of competitive slurry (XRPD)", "setting": "[1]; Water/MeOH (17/3), 3 d", "result": "Form X"}, {"measurement": "Output of competitive slurry (XRPD)", "setting": "[1]; Water/MeOH (19/1), 3 d", "result": "Form X"}]}, {"smiles": "[2H]C([2H])(Oc1cc(C)n(-c2c(C)cnc(-n3ccc(C(C)(C)O)n3)c2F)c(=O)c1Cl)c1ncc(F)cc1F", "note": "[Form VIII]", "values": [{"measurement": "Output of competitive slurry (XRPD)", "setting": "[1]; Water, 1 d", "result": "Form I"}]}, {"smiles": "[2H]C([2H])(Oc1cc(C)n(-c2c(C)cnc(-n3ccc(C(C)(C)O)n3)c2F)c(=O)c1Cl)c1ncc(F)cc1F", "note": "[Form I + IV]", "values": [{"measurement": "Output of competitive slurry (XRPD)", "setting": "[1]; Water, 3 d", "result": "Form IV"}, {"measurement": "Output of competitive slurry (XRPD)", "setting": "[1]; Water/MeOH (9/1), 3 d", "result": "Form IV + IX"}, {"measurement": "Output of competitive slurry (XRPD)", "setting": "[1]; Water/MeOH (19/1), 3 d", "result": "Form IV + IX"}]}, {"smiles": "[2H]C([2H])(Oc1cc(C)n(-c2c(C)cnc(-n3ccc(C(C)(C)O)n3)c2F)c(=O)c1Cl)c1ncc(F)cc1F", "note": "(atropisomer, axis not shown; (M)) [compound 1, (M)-3-chloro-4-((3,5-difluoropyridin-2-yl)methoxy-d2)-3′-fluoro-2′-(3-(2-hydroxypropan-2-yl)-1H-pyrazol-1-yl)-5′,6-dimethyl-2H-[1,4′-bipyridin]-2-one]", "values": [{"measurement": "chemical stability under strong acidic conditions", "setting": "[2]; salt screening with 6 strong acids", "result": "chemically unstable"}]}, {"smiles": "[2H]C([2H])(Oc1cc(C)n(-c2c(C)cnc(-n3ccc(C(C)(C)O)n3)c2F)c(=O)c1Cl)c1ncc(F)cc1F", "note": "[Form IV + X]", "values": [{"measurement": "Output of competitive slurry (XRPD)", "setting": "[1]; Water, 2 d", "result": "Form X"}]}, {"smiles": "[2H]C([2H])(Oc1cc(C)n(-c2c(C)cnc(-n3ccc(C(C)(C)O)n3)c2F)c(=O)c1Cl)c1ncc(F)cc1F", "note": "[Form I, starting material]", "values": [{"measurement": "Purity (area %)", "setting": "[2]; salt screening samples, HPLC, chemical stability under strong acid", "result": 99.29, "unit": "area %"}]}, {"smiles": "[2H]C([2H])(Oc1cc(C)n(-c2c(C)cnc(-n3ccc(C(C)(C)O)n3)c2F)c(=O)c1Cl)c1ncc(F)cc1F", "note": "[Form I]", "values": [{"measurement": "XRPD Result (6 d)", "setting": "[3]", "result": "Form IV (6 d)"}, {"measurement": "Estimated Solubility", "setting": "[4]; CYH", "result": "<1000", "unit": "µg/mL"}, {"measurement": "Estimated Solubility", "setting": "[4]; Heptane", "result": "<1000", "unit": "µg/mL"}, {"measurement": "Estimated Solubility", "setting": "[4]; IPE", "result": "<1000", "unit": "µg/mL"}, {"measurement": "Estimated Solubility", "setting": "[4]; Water", "result": "<1000", "unit": "µg/mL"}, {"measurement": "Estimated Solubility", "setting": "[4]; visual observation, most tested solvents", "result": "> 100000", "unit": "µg/mL"}, {"measurement": "XRPD Result Day 3", "setting": "[5]; [6]", "result": "Form VII"}, {"measurement": "XRPD Result Day 7", "setting": "[5]; [6]", "result": "Form III"}, {"measurement": "XRPD Result Day 3", "setting": "[5]; [7]", "result": "Form IV"}, {"measurement": "XRPD Result Day 7", "setting": "[5]; [7]", "result": "Form IV"}, {"measurement": "XRPD Result Day 3", "setting": "[5]; [8]", "result": "Form IV"}, {"measurement": "XRPD Result Day 7", "setting": "[5]; [8]", "result": "Form IV"}, {"measurement": "XRPD Result Day 3", "setting": "[5]; slurry at 50° C., CYH", "result": "Form IV"}, {"measurement": "XRPD Result Day 7", "setting": "[5]; slurry at 50° C., CYH", "result": "Form IV"}, {"measurement": "XRPD Result Day 3", "setting": "[5]; slurry at 50° C., Heptane", "result": "Form IV"}, {"measurement": "XRPD Result Day 7", "setting": "[5]; slurry at 50° C., Heptane", "result": "Form IV"}, {"measurement": "XRPD Result Day 3", "setting": "[5]; [9]", "result": "Form IV + VIII"}, {"measurement": "XRPD Result Day 7", "setting": "[5]; [9]", "result": "Form IV + VIII"}, {"measurement": "XRPD Result Day 3", "setting": "[5]; slurry at 50° C., IPE", "result": "Form IV"}, {"measurement": "XRPD Result Day 7", "setting": "[5]; slurry at 50° C., IPE", "result": "Form IV + VIII"}, {"measurement": "XRPD Result Day 3", "setting": "[5]; [10]", "result": "Form IV"}, {"measurement": "XRPD Result Day 7", "setting": "[5]; [10]", "result": "Form IV"}, {"measurement": "XRPD Result Day 3", "setting": "[5]; slurry at 50° C., MTBE", "result": "Form III"}, {"measurement": "XRPD Result Day 7", "setting": "[5]; slurry at 50° C., MTBE", "result": "Form III"}, {"measurement": "XRPD Result Day 3", "setting": "[5]; slurry at 50° C., MeCYH", "result": "Form IV"}, {"measurement": "XRPD Result Day 7", "setting": "[5]; slurry at 50° C., MeCYH", "result": "Form IV"}, {"measurement": "XRPD Result Day 3", "setting": "[5]; slurry at 50° C., Toluene", "result": "Clear"}, {"measurement": "XRPD Result Day 7", "setting": "[5]; slurry at 50° C., Toluene", "result": "Clear"}, {"measurement": "XRPD Result Day 3", "setting": "[5]; [11]", "result": "Form IV"}, {"measurement": "XRPD Result Day 7", "setting": "[5]; [11]", "result": "Form IV"}, {"measurement": "XRPD Result Day 3", "setting": "[5]; slurry at 50° C., Water", "result": "Form IV"}, {"measurement": "XRPD Result Day 7", "setting": "[5]; slurry at 50° C., Water", "result": "Form IV"}, {"measurement": "XRPD Result-Day 3", "setting": "[5]; CYH", "result": "Form VIII"}, {"measurement": "XRPD Result-Day 3", "setting": "[5]; Heptane", "result": "Form VIII"}, {"measurement": "XRPD Result-Day 3", "setting": "[5]; MeCYH", "result": "Form VIII"}, {"measurement": "XRPD Result-Day 3", "setting": "[5]; Water", "result": "Form IV"}, {"measurement": "XRPD Result Day 3", "setting": "[5]; slurry at RT, ACN/water (1/9)", "result": "Form IV"}, {"measurement": "XRPD Result Day 7", "setting": "[5]; slurry at RT, ACN/water (1/9)", "result": "Form IV"}, {"measurement": "XRPD Result Day 3", "setting": "[5]; [12]", "result": "Form VII"}, {"measurement": "XRPD Result Day 7", "setting": "[5]; [12]", "result": "Form VII"}, {"measurement": "XRPD Result Day 3", "setting": "[5]; slurry at RT, CYH", "result": "Form I"}, {"measurement": "XRPD Result Day 7", "setting": "[5]; slurry at RT, CYH", "result": "Form I"}, {"measurement": "XRPD Result Day 3", "setting": "[5]; slurry at RT, Heptane", "result": "Form I"}, {"measurement": "XRPD Result Day 7", "setting": "[5]; slurry at RT, Heptane", "result": "Form I"}, {"measurement": "XRPD Result Day 3", "setting": "[5]; [13]", "result": "Form IV"}, {"measurement": "XRPD Result Day 7", "setting": "[5]; [13]", "result": "Form IV"}, {"measurement": "XRPD Result Day 3", "setting": "[5]; [14]", "result": "Form IV"}, {"measurement": "XRPD Result Day 7", "setting": "[5]; [14]", "result": "Form IV"}, {"measurement": "XRPD Result Day 3", "setting": "[5]; slurry at RT, MTBE", "result": "Form III"}, {"measurement": "XRPD Result Day 7", "setting": "[5]; slurry at RT, MTBE", "result": "Form III"}, {"measurement": "XRPD Result Day 3", "setting": "[5]; slurry at RT, MeCYH", "result": "Form I"}, {"measurement": "XRPD Result Day 7", "setting": "[5]; slurry at RT, MeCYH", "result": "Form I"}, {"measurement": "XRPD Result Day 3", "setting": "[5]; slurry at RT, Toluene", "result": "Gel-like on the wall"}, {"measurement": "XRPD Result Day 7", "setting": "[5]; slurry at RT, Toluene", "result": "Gel-like on the wall"}, {"measurement": "XRPD Result Day 3", "setting": "[5]; [15]", "result": "Form IV"}, {"measurement": "XRPD Result Day 7", "setting": "[5]; [15]", "result": "Form IV"}, {"measurement": "XRPD Result Day 3", "setting": "[5]; slurry at RT, Water", "result": "Form I"}, {"measurement": "XRPD Result Day 7", "setting": "[5]; slurry at RT, Water", "result": "Form I"}]}]}
